pIC50: −log10 of the molar value.

The target of the assay is T1, 15-PGDH de type 1 (Homo sapiens, UniProt P15428).
T1 construct: made in house
T1 sequence (P15428 1-266): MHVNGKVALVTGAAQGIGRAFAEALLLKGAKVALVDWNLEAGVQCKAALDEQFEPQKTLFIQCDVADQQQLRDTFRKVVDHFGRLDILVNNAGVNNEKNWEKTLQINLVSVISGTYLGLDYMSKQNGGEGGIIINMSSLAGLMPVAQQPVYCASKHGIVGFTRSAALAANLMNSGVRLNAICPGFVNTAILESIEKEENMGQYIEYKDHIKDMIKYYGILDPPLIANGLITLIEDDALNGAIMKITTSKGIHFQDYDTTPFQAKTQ
Put plainly: Test on 15-PGDH type 1: spectrophotometric enzyme inhibition (340 nm, NAD+/PGE2). Format: biochemical. Conditions: concentration reducing the enzymatic activity of 15-PGDH by 50%; Tris 100 mM pH 7,4, 37°C, 50 µM Prostaglandine E2, 1,5 mM β-NAD. The method, then: L'enzyme 15-PGDH est obtenue comme décrit dans la demande FR 02/05067 déposée au nom de L'Oréal, en suspension dans un milieu adapté à une concentration de 0,3 mg/mL puis bloquée à - 80°C. Pour les besoins du test, cette suspension est décongelée et stockée dans de la glace.
Par ailleurs on prépare un tampon Tris 100 mM, pH = 7,4, contenant 0,1 mM de dithiothréitol (D5545, Sigma-Aldrich, L'isle D'Abeau Chesne, BP 701, 38297, Saint Quentin Fallavier), 1,5 mM de β-NAD (N6522, Sigma-Aldrich, L'isle D'Abeau Chesne, BP 701, 38297, Saint Quentin Fallavier), 50 µM de Prostaglandine E2 (P4172, Sigma-Aldrich, L'isle D'Abeau Chesne, BP 701, 38297, Saint Quentin Fallavier).
Dans la cuve d'un spectrophotomètre (Perkin-Elmer, Lambda 2) thermostaté à 37°C, dont la longueur d'onde de mesure est réglée à 340 nm, sont introduits 0,965 ml de ce tampon (préalablement porté à 37°C). 0,035 mL de suspension enzymatique à 37°C sont introduits dans la cuve concomitamment à l'enregistrement ( correspondant à une augmentation de la densité optique à 340 nm). La vitesse maximale de réaction est relevée.
Les valeurs essais (contenant les composés de formule (I)) sont comparées à la valeur témoin (sans composé de formule (I)); les résultats indiqués représentent soit le pourcentage d'inhibition de l'activité enzymatique de 15-PGDH pour une concentration donnée de composé de formule (I), soit la concentration à laquelle le composé de formule (I) réduit de 50% l'activité enzymatique de 15-PGDH, à savoir IC50dh.
What is called pIC50 is the IC50 on a negative log10 scale, so that one unit is a factor of ten. A high value points to a small IC50. For the compound `O=C1NC(=O)C(Cc2ccccc2Oc2ccc(Cl)cc2Cl)S1` (stereo not shown) [compound 2], the pIC50 is 5.92. In turn, `O=C1NC(=O)C(Cc2ccccc2Oc2ccccc2)S1` (stereo not shown) [compound 3] gave a pIC50 of 5.56. This pIC50 is 0.36 log units lower than that of the compound before. The result for `CC(C)(C)c1ccc(Oc2ccccc2CC2SC(=O)NC2=O)cc1` (stereo not shown) [compound 4, 5-[2-(4-tert-butylphenoxy)benzyl]-1,3-thiazolidine-2,4-dione] reads 6.40; that for `CC(C)(C)c1ccc(Oc2cccc(CC3SC(=O)NC3=O)c2)cc1` (stereo not shown) [compound 5], 6.24.

The values above are taken from patent EP1738742A2, “Benzyl-1,3-thiazolidine-2,4-dione compounds, compositions comprising them and use for stimulating or inducing the growth of keratinic fibres and/or for diminsihing their loss” (L'Oreal, priority 2005, dated 2007).
